Numbers after ± are expanded uncertainties.
Assay: xn = mol fraction of the nth substance listed
Details: 101 kPa, Liquid; for viscosity: Concentric cylinders viscometry; for mass density: Vibrating tube method

COC(C)(C)C [2-methoxy-2-methylpropane] + CCCCCCO
Details | mass density, 293.15 K [kg/m3] | mass density, 298.15 K [kg/m3] | mass density, 303.15 K [kg/m3] | mass density, 308.15 K [kg/m3] | viscosity, 293.15 K [mPa·s] | viscosity, 298.15 K [mPa·s] | viscosity, 303.15 K [mPa·s] | viscosity, 308.15 K [mPa·s]
x1 = 0.0103 | 818.26 ± 0.63 | 814.71 ± 0.63 | 811.1 ± 0.63 | 807.46 ± 0.62 | 5.223 ± 0.22 | 4.46 ± 0.19 | 3.832 ± 0.16 | 3.31 ± 0.14
x1 = 0.0204 | 817.68 ± 0.62 | 814.12 ± 0.62 | 810.49 ± 0.62 | 806.85 ± 0.61 | 5.039 ± 0.21 | 4.314 ± 0.18 | 3.714 ± 0.16 | 3.214 ± 0.13
x1 = 0.0304 | 817.11 ± 0.61 | 813.53 ± 0.61 | 809.9 ± 0.61 | 806.24 ± 0.6 | 4.87 ± 0.2 | 4.175 ± 0.17 | 3.6 ± 0.15 | 3.12 ± 0.13
x1 = 0.0408 | 816.51 ± 0.6 | 812.92 ± 0.6 | 809.27 ± 0.6 | 805.6 ± 0.59 | 4.696 ± 0.2 | 4.036 ± 0.17 | 3.486 ± 0.15 | 3.026 ± 0.13
x1 = 0.0495 | 816 ± 0.59 | 812.4 ± 0.59 | 808.75 ± 0.59 | 805.07 ± 0.58 | 4.562 ± 0.19 | 3.925 ± 0.16 | 3.395 ± 0.14 | 2.951 ± 0.12
x1 = 0.0625 | 815.23 ± 0.58 | 811.62 ± 0.58 | 807.96 ± 0.57 | 804.26 ± 0.57 | 4.361 ± 0.18 | 3.761 ± 0.16 | 3.259 ± 0.14 | 2.839 ± 0.12
x1 = 0.0705 | 814.74 ± 0.57 | 811.12 ± 0.57 | 807.44 ± 0.57 | 803.74 ± 0.56 | 4.252 ± 0.18 | 3.67 ± 0.15 | 3.185 ± 0.13 | 2.779 ± 0.12
x1 = 0.0799 | 814.17 ± 0.56 | 810.54 ± 0.56 | 806.85 ± 0.56 | 803.14 ± 0.56 | 4.113 ± 0.17 | 3.555 ± 0.15 | 3.09 ± 0.13 | 2.699 ± 0.11
x1 = 0.0912 | 813.49 ± 0.55 | 809.83 ± 0.55 | 806.14 ± 0.55 | 802.42 ± 0.55 | 3.959 ± 0.17 | 3.433 ± 0.14 | 2.991 ± 0.12 | 2.621 ± 0.11
x1 = 0.0994 | 813.01 ± 0.55 | 809.36 ± 0.54 | 805.66 ± 0.54 | 801.92 ± 0.54 | 3.852 ± 0.16 | 3.343 ± 0.14 | 2.913 ± 0.12 | 2.549 ± 0.11
x1 = 0.1508 | 809.87 ± 0.5 | 806.15 ± 0.5 | 802.39 ± 0.5 | 798.59 ± 0.49 | 3.253 ± 0.14 | 2.842 ± 0.12 | 2.493 ± 0.1 | 2.198 ± 0.091
x1 = 0.205 | 806.42 ± 0.46 | 802.7 ± 0.46 | 798.86 ± 0.46 | 795 ± 0.46 | 2.733 ± 0.11 | 2.44 ± 0.1 | 2.173 ± 0.09 | 1.892 ± 0.079
x1 = 0.2579 | 802.99 ± 0.43 | 799.15 ± 0.43 | 795.26 ± 0.42 | 791.32 ± 0.42 | 2.318 ± 0.096 | 2.067 ± 0.086 | 1.848 ± 0.077 | 1.634 ± 0.068
x1 = 0.3 | 800.17 ± 0.4 | 796.26 ± 0.4 | 792.3 ± 0.4 | 788.3 ± 0.4 | 2.047 ± 0.085 | 1.828 ± 0.076 | 1.636 ± 0.068 | 1.468 ± 0.061
x1 = 0.3574 | 796.2 ± 0.37 | 792.23 ± 0.37 | 788.18 ± 0.37 | 784.11 ± 0.37 | 1.724 ± 0.071 | 1.56 ± 0.065 | 1.392 ± 0.058 | 1.257 ± 0.052
x1 = 0.4012 | 793.09 ± 0.35 | 789.05 ± 0.35 | 784.94 ± 0.35 | 780.8 ± 0.35 | 1.53 ± 0.063 | 1.368 ± 0.056 | 1.239 ± 0.051 | 1.122 ± 0.046
x1 = 0.4501 | 789.54 ± 0.33 | 785.43 ± 0.33 | 781.24 ± 0.33 | 777.03 ± 0.33 | 1.324 ± 0.055 | 1.197 ± 0.049 | 1.09 ± 0.045 | 0.9929 ± 0.041
x1 = 0.5028 | 785.58 ± 0.31 | 781.39 ± 0.31 | 777.12 ± 0.31 | 772.81 ± 0.31 | 1.145 ± 0.047 | 1.045 ± 0.043 | 0.9538 ± 0.039 | 0.8711 ± 0.036
x1 = 0.5637 | 780.83 ± 0.29 | 776.53 ± 0.3 | 772.16 ± 0.3 | 767.75 ± 0.3 | 0.9727 ± 0.04 | 0.8921 ± 0.037 | 0.8183 ± 0.034 | 0.7502 ± 0.031
x1 = 0.598 | 778.11 ± 0.29 | 773.75 ± 0.29 | 769.31 ± 0.29 | 764.84 ± 0.29 | 0.8885 ± 0.037 | 0.8156 ± 0.034 | 0.7488 ± 0.031 | 0.6862 ± 0.028
x1 = 0.6508 | 773.76 ± 0.27 | 769.32 ± 0.27 | 764.78 ± 0.28 | 760.21 ± 0.28 | 0.7769 ± 0.032 | 0.7149 ± 0.029 | 0.6592 ± 0.027 | 0.6063 ± 0.025
x1 = 0.7 | 769.62 ± 0.26 | 765.05 ± 0.27 | 760.44 ± 0.27 | 755.77 ± 0.27 | 0.6805 ± 0.028 | 0.6305 ± 0.026 | 0.5829 ± 0.024 | 0.5443 ± 0.023
x1 = 0.7493 | 765.32 ± 0.26 | 760.67 ± 0.26 | 755.96 ± 0.26 | 751.19 ± 0.26 | 0.6088 ± 0.025 | 0.5658 ± 0.023 | 0.523 ± 0.022 | 0.481 ± 0.02
x1 = 0.7994 | 760.79 ± 0.25 | 756.02 ± 0.25 | 751.14 ± 0.25 | 746.31 ± 0.25 | 0.5397 ± 0.022 | 0.5033 ± 0.021 | 0.4676 ± 0.019 | 0.4306 ± 0.018
x1 = 0.8514 | 755.91 ± 0.25 | 751.04 ± 0.25 | 746.09 ± 0.25 | 741.09 ± 0.25 | 0.4782 ± 0.02 | 0.4484 ± 0.019 | 0.4172 ± 0.017 | 0.389 ± 0.016
x1 = 0.903 | 750.84 ± 0.24 | 745.85 ± 0.24 | 740.79 ± 0.25 | 735.68 ± 0.25 | 0.424 ± 0.018 | 0.397 ± 0.017 | 0.3679 ± 0.016 | 0.3464 ± 0.015
x1 = 0.9095 | 750.2 ± 0.24 | 745.2 ± 0.24 | 740.12 ± 0.25 | 735 ± 0.25 | 0.418 ± 0.017 | 0.3923 ± 0.017 | 0.3635 ± 0.015 | 0.3436 ± 0.015
x1 = 0.9204 | 749.1 ± 0.24 | 744.07 ± 0.24 | 738.99 ± 0.24 | 733.83 ± 0.25 | 0.4077 ± 0.017 | 0.3825 ± 0.016 | 0.3535 ± 0.015 | 0.3351 ± 0.014
x1 = 0.9294 | 748.16 ± 0.24 | 743.14 ± 0.24 | 738 ± 0.24 | 732.83 ± 0.25 | 0.3999 ± 0.017 | 0.3756 ± 0.016 | 0.3485 ± 0.015 | 0.3282 ± 0.014
x1 = 0.9397 | 747.1 ± 0.24 | 742.04 ± 0.24 | 736.89 ± 0.24 | 731.69 ± 0.24 | 0.3904 ± 0.016 | 0.3661 ± 0.015 | 0.3396 ± 0.014 | 0.3202 ± 0.014
x1 = 0.9495 | 746.08 ± 0.24 | 741.01 ± 0.24 | 735.83 ± 0.24 | 730.61 ± 0.24 | 0.382 ± 0.016 | 0.3603 ± 0.015 | 0.3326 ± 0.014 | 0.3124 ± 0.013
x1 = 0.9589 | 745.09 ± 0.24 | 739.99 ± 0.24 | 734.79 ± 0.24 | 729.54 ± 0.24 | 0.374 ± 0.016 | 0.3542 ± 0.015 | 0.3253 ± 0.014 | 0.3083 ± 0.013
x1 = 0.969 | 744.04 ± 0.24 | 738.91 ± 0.24 | 733.68 ± 0.24 | 728.41 ± 0.24 | 0.3661 ± 0.015 | 0.3441 ± 0.015 | 0.3206 ± 0.014 | 0.3023 ± 0.013
x1 = 0.9791 | 742.95 ± 0.24 | 737.79 ± 0.24 | 732.55 ± 0.24 | 727.25 ± 0.24 | 0.3582 ± 0.015 | 0.337 ± 0.014 | 0.3139 ± 0.013 | 0.2969 ± 0.013
x1 = 0.9899 | 741.78 ± 0.24 | 736.6 ± 0.24 | 731.33 ± 0.24 | 726.01 ± 0.24 | 0.3508 ± 0.015 | 0.3303 ± 0.014 | 0.3069 ± 0.013 | 0.2898 ± 0.013

Source: the NIST ThermoML archive (doi:10.1016/j.jct.2011.02.018)
